target: Carbonic anhydrase 9 (Homo sapiens, UniProt Q16790); experiment: Inhibition of recombinant human CA 9 preincubated for 15 mins by phenol red dye based stopped flow CO2 hydration assay; details: not given

| Structure (SMILES) | Ki |
| --- | --- |
| Cc1ccc(/C=N/Nc2nc(Nc3ccccc3)nc(Nc3ccc(S(N)(=O)=O)cc3)n2)cc1 | 26.9 nM |

system: CCRF-CEM; experiment: Anticancer activity against human CCRF-CEM cells assessed as cell growth inhibition at 10 uM incubated for 48 hrs by SRB assay relative to control; format: functional; details: read-out: GI

| Structure (SMILES) | inhibition of growth at 10 µM |
| --- | --- |
| Cc1ccc(/C=N/Nc2nc(Nc3ccccc3)nc(Nc3ccc(S(N)(=O)=O)cc3)n2)cc1 | 57% |

system: HL-60(TB); experiment: Anticancer activity against human HL-60(TB) cells assessed as cell growth inhibition at 10 uM incubated for 48 hrs by SRB assay relative to control; format: functional; details: read-out: GI

| Structure (SMILES) | inhibition of growth at 10 µM |
| --- | --- |
| Cc1ccc(/C=N/Nc2nc(Nc3ccccc3)nc(Nc3ccc(S(N)(=O)=O)cc3)n2)cc1 | 24% |

system: K562; experiment: Anticancer activity against human K562 cells assessed as cell growth inhibition at 10 uM incubated for 48 hrs by SRB assay relative to control; format: functional; details: read-out: GI

| Structure (SMILES) | inhibition of growth at 10 µM |
| --- | --- |
| Cc1ccc(/C=N/Nc2nc(Nc3ccccc3)nc(Nc3ccc(S(N)(=O)=O)cc3)n2)cc1 | 43% |

system: RPMI-8226; experiment: Anticancer activity against human RPMI-8226 cells assessed as cell growth inhibition at 10 uM incubated for 48 hrs by SRB assay relative to control; format: functional; details: read-out: GI

| Structure (SMILES) | inhibition of growth at 10 µM |
| --- | --- |
| Cc1ccc(/C=N/Nc2nc(Nc3ccccc3)nc(Nc3ccc(S(N)(=O)=O)cc3)n2)cc1 | 56% |

system: SR; experiment: Anticancer activity against human SR cells assessed as cell growth inhibition at 10 uM incubated for 48 hrs by SRB assay relative to control; format: functional; details: read-out: GI

| Structure (SMILES) | inhibition of growth at 10 µM |
| --- | --- |
| Cc1ccc(/C=N/Nc2nc(Nc3ccccc3)nc(Nc3ccc(S(N)(=O)=O)cc3)n2)cc1 | 64% |

system: EKVX; experiment: Anticancer activity against human EKVX cells assessed as cell growth inhibition at 10 uM incubated for 48 hrs by SRB assay relative to control; format: functional; details: read-out: GI

| Structure (SMILES) | inhibition of growth at 10 µM |
| --- | --- |
| Cc1ccc(/C=N/Nc2nc(Nc3ccccc3)nc(Nc3ccc(S(N)(=O)=O)cc3)n2)cc1 | 21% |

system: HOP-92; experiment: Anticancer activity against human HOP-92 cells assessed as cell growth inhibition at 10 uM incubated for 48 hrs by SRB assay relative to control; format: functional; details: read-out: GI

| Structure (SMILES) | inhibition of growth at 10 µM |
| --- | --- |
| Cc1ccc(/C=N/Nc2nc(Nc3ccccc3)nc(Nc3ccc(S(N)(=O)=O)cc3)n2)cc1 | > 10% |

system: NCI-H23; experiment: Anticancer activity against human NCI-H23 cells assessed as cell growth inhibition at 10 uM incubated for 48 hrs by SRB assay relative to control; format: functional; details: read-out: GI

| Structure (SMILES) | inhibition of growth at 10 µM |
| --- | --- |
| Cc1ccc(/C=N/Nc2nc(Nc3ccccc3)nc(Nc3ccc(S(N)(=O)=O)cc3)n2)cc1 | 23% |

system: NCI-H460; experiment: Anticancer activity against human NCI-H460 cells assessed as cell growth inhibition at 10 uM incubated for 48 hrs by SRB assay relative to control; format: functional; details: read-out: GI

| Structure (SMILES) | inhibition of growth at 10 µM |
| --- | --- |
| Cc1ccc(/C=N/Nc2nc(Nc3ccccc3)nc(Nc3ccc(S(N)(=O)=O)cc3)n2)cc1 | 45% |

system: NCI-H522; experiment: Anticancer activity against human NCI-H522 cells assessed as cell growth inhibition at 10 uM incubated for 48 hrs by SRB assay relative to control; format: functional; details: read-out: GI

| Structure (SMILES) | inhibition of growth at 10 µM |
| --- | --- |
| Cc1ccc(/C=N/Nc2nc(Nc3ccccc3)nc(Nc3ccc(S(N)(=O)=O)cc3)n2)cc1 | 10% |

system: COLO 205; experiment: Anticancer activity against human COLO 205 cells assessed as cell growth inhibition at 10 uM incubated for 48 hrs by SRB assay relative to control; format: functional; details: read-out: GI

| Structure (SMILES) | inhibition of growth at 10 µM |
| --- | --- |
| Cc1ccc(/C=N/Nc2nc(Nc3ccccc3)nc(Nc3ccc(S(N)(=O)=O)cc3)n2)cc1 | 16% |

system: HCC 2998; experiment: Anticancer activity against human HCC 2998 cells assessed as cell growth inhibition at 10 uM incubated for 48 hrs by SRB assay relative to control; format: functional; details: read-out: GI

| Structure (SMILES) | inhibition of growth at 10 µM |
| --- | --- |
| Cc1ccc(/C=N/Nc2nc(Nc3ccccc3)nc(Nc3ccc(S(N)(=O)=O)cc3)n2)cc1 | 25% |

system: HCT-116; experiment: Anticancer activity against human HCT-116 cells assessed as cell growth inhibition at 10 uM incubated for 48 hrs by SRB assay relative to control; format: functional; details: read-out: GI

| Structure (SMILES) | inhibition of growth at 10 µM |
| --- | --- |
| Cc1ccc(/C=N/Nc2nc(Nc3ccccc3)nc(Nc3ccc(S(N)(=O)=O)cc3)n2)cc1 | 48% |

system: HCT-15; experiment: Anticancer activity against human HCT-15 cells assessed as cell growth inhibition at 10 uM incubated for 48 hrs by SRB assay relative to control; format: functional; details: read-out: GI

| Structure (SMILES) | inhibition of growth at 10 µM |
| --- | --- |
| Cc1ccc(/C=N/Nc2nc(Nc3ccccc3)nc(Nc3ccc(S(N)(=O)=O)cc3)n2)cc1 | 46% |

system: HT-29; experiment: Anticancer activity against human HT-29 cells assessed as cell growth inhibition at 10 uM incubated for 48 hrs by SRB assay relative to control; format: functional; details: read-out: GI

| Structure (SMILES) | inhibition of growth at 10 µM |
| --- | --- |
| Cc1ccc(/C=N/Nc2nc(Nc3ccccc3)nc(Nc3ccc(S(N)(=O)=O)cc3)n2)cc1 | 45% |

system: SW-620; experiment: Anticancer activity against human SW-620 cells assessed as cell growth inhibition at 10 uM incubated for 48 hrs by SRB assay relative to control; format: functional; details: read-out: GI

| Structure (SMILES) | inhibition of growth at 10 µM |
| --- | --- |
| Cc1ccc(/C=N/Nc2nc(Nc3ccccc3)nc(Nc3ccc(S(N)(=O)=O)cc3)n2)cc1 | < 10% |

system: SF-539; experiment: Anticancer activity against human SF-539 cells assessed as cell growth inhibition at 10 uM incubated for 48 hrs by SRB assay relative to control; format: functional; details: read-out: GI

| Structure (SMILES) | inhibition of growth at 10 µM |
| --- | --- |
| Cc1ccc(/C=N/Nc2nc(Nc3ccccc3)nc(Nc3ccc(S(N)(=O)=O)cc3)n2)cc1 | 55% |

system: SNB-19; experiment: Anticancer activity against human SNB-19 cells assessed as cell growth inhibition at 10 uM incubated for 48 hrs by SRB assay relative to control; format: functional; details: read-out: GI

| Structure (SMILES) | inhibition of growth at 10 µM |
| --- | --- |
| Cc1ccc(/C=N/Nc2nc(Nc3ccccc3)nc(Nc3ccc(S(N)(=O)=O)cc3)n2)cc1 | 22% |

system: SNB-75; experiment: Anticancer activity against human SNB-75 cells assessed as cell growth inhibition at 10 uM incubated for 48 hrs by SRB assay relative to control; format: functional; details: read-out: GI

| Structure (SMILES) | inhibition of growth at 10 µM |
| --- | --- |
| Cc1ccc(/C=N/Nc2nc(Nc3ccccc3)nc(Nc3ccc(S(N)(=O)=O)cc3)n2)cc1 | 32% |

— ChEMBL document CHEMBL5154747, “Discovery of new carbonic anhydrase IX inhibitors as anticancer agents by toning the hydrophobic and hydrophilic rims of the active site to encounter the dual-tail approach” (Eur J Med Chem, 2022)
